ChEMBL document CHEMBL1148418, “BMS-201620: a selective beta 3 agonist” (Bioorg Med Chem Lett, 2004)

Organism: Cavia porcellus
Experiment: Intrinsic activity was determined using spontaneously beating guinea pig atria by measuring contraction acceleration relative to isoproterenol response
Assay type: functional
Details: not given

Compound | IA
COc1ccc([C@](C)(NC[C@H](O)c2ccc(O)c(NS(C)(=O)=O)c2)C(=O)Nc2cccc(C)c2)cc1 | 73%
COc1ccc([C@](C)(NC[C@H](O)c2ccc(O)c(NS(C)(=O)=O)c2)C(=O)Nc2ccc(Cl)cc2F)cc1 | 43%
COc1ccc([C@](C)(NC[C@H](O)c2ccc(O)c(NS(C)(=O)=O)c2)C(=O)Nc2cccc(Cl)c2)cc1 | 50%
COc1ccc([C@](C)(NC[C@H](O)c2ccc(O)c(NS(C)(=O)=O)c2)C(=O)Nc2ccc(O)cc2)cc1 | 90%
COc1ccc([C@](C)(NC[C@H](O)c2ccc(O)c(NS(C)(=O)=O)c2)C(=O)Nc2cc(Cl)cc(Cl)c2)cc1 | 13%
COc1ccc([C@](C)(NC[C@H](O)c2ccc(O)c(NS(C)(=O)=O)c2)C(=O)Nc2ccc(Cl)c(Cl)c2)cc1 | 8%
COc1ccc([C@](C)(NC[C@H](O)c2ccc(O)c(NS(C)(=O)=O)c2)C(=O)Nc2cccc(OC)c2)cc1 | 85%
COc1ccc([C@](C)(NC[C@H](O)c2ccc(O)c(NS(C)(=O)=O)c2)C(=O)Nc2cc(OC)c(OC)c(OC)c2)cc1 | 66%
COc1ccc([C@](C)(NC[C@H](O)c2ccc(O)c(NS(C)(=O)=O)c2)C(=O)Nc2cccc(CN)c2)cc1 | 91%
COc1ccc([C@](C)(NC[C@H](O)c2ccc(O)c(NS(C)(=O)=O)c2)C(=O)Nc2ccccc2C)cc1 | 83%
COc1ccc([C@](C)(NC[C@H](O)c2ccc(O)c(NS(C)(=O)=O)c2)C(=O)Nc2cccc(Br)c2)cc1 | 50%
COc1ccc([C@](C)(NC[C@H](O)c2ccc(O)c(NS(C)(=O)=O)c2)C(=O)Nc2ccc(C)cc2)cc1 | 90%
COc1ccc([C@](C)(NC[C@H](O)c2ccc(O)c(NS(C)(=O)=O)c2)C(=O)Nc2cccc(O)c2)cc1 | 96%
COc1ccc([C@](C)(NC[C@H](O)c2ccc(O)c(NS(C)(=O)=O)c2)C(=O)Nc2ccc(Cl)cc2)cc1 | 62%
CCOP(=O)(Cc1ccc(NC(=O)[C@@](C)(NC[C@H](O)c2ccc(O)c(NS(C)(=O)=O)c2)c2ccc(OC)cc2)cc1)OCC | 55%
COc1ccc([C@](C)(NC[C@H](O)c2ccc(O)c(NS(C)(=O)=O)c2)C(=O)Nc2ccccc2OC)cc1 | 60%
COc1ccc([C@](C)(NC[C@H](O)c2ccc(O)c(NS(C)(=O)=O)c2)C(=O)Nc2cccc(OCC(=O)O)c2)cc1 | 87%
COc1ccc([C@](C)(NC[C@H](O)c2ccc(O)c(NS(C)(=O)=O)c2)C(=O)Nc2ccc(OCC(=O)O)cc2)cc1 | 100%
COc1ccc([C@](C)(NC[C@H](O)c2ccc(O)c(NS(C)(=O)=O)c2)C(=O)Nc2cccc(OCCN(C)C)c2)cc1 | 85%
COc1ccc([C@](C)(NC[C@H](O)c2ccc(O)c(NS(C)(=O)=O)c2)C(=O)Nc2ccc3sc(C)nc3c2)cc1 | 70%
COc1ccc([C@](C)(NC[C@H](O)c2ccc(O)c(NS(C)(=O)=O)c2)C(=O)Nc2ccc(OC)c(OC)c2)cc1 | 89%
COc1ccc([C@](C)(NC[C@H](O)c2ccc(O)c(NS(C)(=O)=O)c2)C(=O)Nc2cc(Cl)c(Cl)c(Cl)c2)cc1 | 15%
COc1ccc([C@](C)(NC[C@H](O)c2ccc(O)c(NS(C)(=O)=O)c2)C(=O)Nc2ccc(OCCN(C)C)cc2)cc1 | 92%
COc1ccc(NC(=O)[C@@](C)(NC[C@H](O)c2ccc(O)c(NS(C)(=O)=O)c2)c2ccc(OC)cc2)cc1 | 85%
COc1ccc([C@H](NC[C@H](O)c2ccc(O)c(NS(C)(=O)=O)c2)C(=O)Nc2ccccc2)cc1 (stereo in doubt; 16) | 95%
COc1ccc([C@H](NC[C@H](O)c2ccc(O)c(NS(C)(=O)=O)c2)C(=O)Nc2ccc3c(c2)OCO3)cc1 (stereo in doubt; 17) | 93%

Each compound was assayed on Monkey (assay: Compound was tested for in vivo lipolysis in african green monkeys after iv administration). Details: Cercopithecidae, in Primates.
Assay type: functional

Compound | ED50
COc1ccc([C@](C)(NC[C@H](O)c2ccc(O)c(NS(C)(=O)=O)c2)C(=O)Nc2ccc(Cl)cc2)cc1 | 0.07 mg/kg
CCOP(=O)(Cc1ccc(NC(=O)[C@@](C)(NC[C@H](O)c2ccc(O)c(NS(C)(=O)=O)c2)c2ccc(OC)cc2)cc1)OCC | 0.1 mg/kg
COc1ccc([C@H](NC[C@H](O)c2ccc(O)c(NS(C)(=O)=O)c2)C(=O)Nc2ccc3c(c2)OCO3)cc1 (stereo in doubt; 17) | 0.08 mg/kg
